Reference: patent US8431563B2 (priority 2010, dated 2013)
pEC50, pIC50: −log10 of the molar value. Like-named read-outs stand apart in the source and are kept apart here.

How the values were obtained:
[1] = target: T1, interaction between glucokinase (GK) and glucokinase regulatory protein (GKRP) (Homo sapiens, UniProt Q14397); experiment: biochemical; assay type: binding
T1 sequence (Q14397 1-625): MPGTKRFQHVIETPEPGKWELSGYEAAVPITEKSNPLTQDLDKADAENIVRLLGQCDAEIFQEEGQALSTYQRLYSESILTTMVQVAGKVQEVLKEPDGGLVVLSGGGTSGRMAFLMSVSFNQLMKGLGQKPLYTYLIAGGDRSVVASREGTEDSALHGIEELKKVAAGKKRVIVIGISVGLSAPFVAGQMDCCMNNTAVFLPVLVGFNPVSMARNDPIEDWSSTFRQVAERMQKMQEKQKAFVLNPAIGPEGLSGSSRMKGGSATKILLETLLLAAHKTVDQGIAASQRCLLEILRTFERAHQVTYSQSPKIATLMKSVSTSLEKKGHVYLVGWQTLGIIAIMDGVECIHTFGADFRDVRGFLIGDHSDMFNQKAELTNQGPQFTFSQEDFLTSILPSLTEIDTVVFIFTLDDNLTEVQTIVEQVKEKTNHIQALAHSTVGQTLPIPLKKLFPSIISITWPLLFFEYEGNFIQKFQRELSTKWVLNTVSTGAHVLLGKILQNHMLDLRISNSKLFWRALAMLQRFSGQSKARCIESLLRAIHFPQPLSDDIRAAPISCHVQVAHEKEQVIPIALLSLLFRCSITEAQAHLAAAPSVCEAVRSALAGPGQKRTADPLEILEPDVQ
In short: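 Avi-tagged human GKRP preincubated with compound for 20 min at room temperature, then 6 nM GK-fluorescein (concentration of added solution) introduced and incubated 2 h in the dark. Buffer: 20 mM Tris pH 7.5, 0.05% BSA, 1 mM DTT, 1 μM sorbitol-6-phosphate. Plate read on a fluorescence reader.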

[2] = target: T2, GKRP (Glucokinase Regulatory Protein) with human His-hepatic GK (Homo sapiens, UniProt Q14397); experiment: biochemical
T2 sequence (Q14397 1-625): T1 sequence (Q14397 1-625)
In short: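 Human His-tagged hepatic GK (30 nM in the 5× working stock) in 50 mM Tris pH 7.5, 4 mM MgCl2, 6% DMSO with DTT, BSA and Brij-35. Enzyme was added after a 30 min step and reacted 30 min at room temperature. The reaction was stopped with acetonitrile and 13C-glucose-6-phosphate formed from 13C-glucose was quantified by LC MS/MS.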

[3] = avi-tagged GKRP, GK-fluorescein, AlphaScreen beads, read-out: GK-GKRP IC50 (Binding)
[4] = 13C-glucose-6-phosphate formation, 280 nM GKRP (10×), 30 nM GK (5×), read-out: GK-GKRP EC50 (LC MS/MS-2)

Row | Structure (SMILES) | pIC50 [1, 3] | pEC50 [2, 4] | pIC50 ([1]; GK-GKRP IC50 (Binding)) | pEC50 ([2]; GK-GKRP EC50 (LC MS/MS-2))
1 | C[C@H]1COCCN1C[C@H]1CN(S(=O)(=O)c2ccc(N)nc2)CCN1c1ncc(C(C)(O)C(F)(F)F)cn1 (mixture of isomers) [Example 129, 2-(2-((2S)-4-((6-amino-3-pyridinyl)sulfonyl)-2-(((3S)-3-methyl-4-morpholinyl)methyl)-1-piperazinyl)-5-pyrimidinyl)-1,1,1-trifluoro-2-propanol] | 7.44 | 7.00 |  | 
2 | C[C@H]1CN(S(=O)(=O)c2ccc(N)s2)CCN1c1ccc(C(C)(O)C(F)(F)F)cc1 (mixture of isomers) [Example 139, 2-(4-((2S)-4-((5-amino-2-thiophenyl)sulfonyl)-2-methyl-1-piperazinyl)phenyl)-1,1,1-trifluoro-2-propanol] | 6.20 | 6.43 |  | 
3 | C[C@@H](C[C@H]1CN(S(=O)(=O)c2cccs2)CCN1c1ccc([C@](C)(O)C(F)(F)F)cc1)NC1COC1 (racemic) [Example 148, 1,1,1-trifluoro-2-(4-((2S)-2-(2-(3-oxetanylamino)propyl)-4-(2-thiophenylsulfonyl)-1-piperazinyl)phenyl)-2-propanol] |  |  | 5.95 | 6.28
4 | CC(O)C#Cc1cc(C(O)(C(F)(F)F)C(F)(F)F)ccc1N1CCN(S(=O)(=O)c2cccs2)CC1 (racemic) [Example 151, 4-(2-(4-(2-thiophenylsulfonyl)-1-piperazinyl)-5-(2,2,2-trifluoro-1-hydroxy-1-(trifluoromethyl)ethyl)phenyl)-3-butyn-2-ol] | 6.40 | 6.00 |  | 
5 | CCC(C#Cc1cc(C(O)(C(F)(F)F)C(F)(F)F)ccc1N1CCN(S(=O)(=O)c2cccs2)CC1)OC (racemic) [Example 155, 1,1,1,3,3,3-hexafluoro-2-(3-(3-methoxy-1-pentyn-1-yl)-4-(4-(2-thiophenylsulfonyl)-1-piperazinyl)phenyl)-2-propanol] | 6.84 | 6.95 |  | 
6 | CCC(C#Cc1cc(C(O)(C(F)(F)F)C(F)(F)F)ccc1N1CCC(S(=O)(=O)c2ccccc2)CC1)OC (racemic) [Example 163, 1,1,1,3,3,3-hexafluoro-2-(3-(3-methoxypent-1-ynyl)-4-(4-(phenylsulfonyl)piperidin-1-yl)phenyl)-2-propanol] | 6.22 | 6.09 |  | 
7 | COc1ccccc1CC1CN(S(=O)(=O)c2cccs2)CCN1c1ccc(C(O)(C(F)(F)F)C(F)(F)F)cc1 (racemic) [Example 174, 1,1,1,3,3,3-hexafluoro-2-(4-(2-(2-methoxybenzyl)-4-(thiophen-2-ylsulfonyl)piperazin-1-yl)phenyl)-2-propanol] | 6.78 | 6.94 |  | 
8 | O=S(=O)(c1cccs1)N1CCN(c2ccc(C(O)(C(F)(F)F)C(F)(F)F)cc2)C(Cc2ccccc2O)C1 (racemic) [Example 178, 2-((1-(4-(1,1,1,3,3,3-hexafluoro-2-hydroxypropan-2-yl)phenyl)-4-(thiophen-2-ylsulfonyl)piperazin-2-yl)methyl)phenol] | 6.77 | 7.08 |  | 
9 | CC(C)C1C(=O)NCCN1C[C@H]1CN(S(=O)(=O)c2cccs2)CCN1c1ncc(C(O)(C(F)(F)F)C(F)(F)F)cn1 (mixture of isomers) [Example 185, 3-(1-methylethyl)-4-(((2S)-4-(2-thiophenylsulfonyl)-1-(5-(2,2,2-trifluoro-1-hydroxy-1-(trifluoromethyl)ethyl)-2-pyrimidinyl)-2-piperazinyl)methyl)-2-piperazinone] | 9.00 | 7.80 |  | 
10 | CC(O)(c1ccc(N2CCN(S(=O)(=O)c3cccs3)C[C@@H]2CS(=O)(=O)c2cccc(F)c2)cc1)C(F)(F)F (mixture of isomers) [Example 189 Peak#1, 1,1,1-trifluoro-2-(4-((2R)-2-(((3-fluorophenyl)sulfonyl)methyl)-4-(2-thiophenylsulfonyl)-1-piperazinyl)phenyl)-2-propanol] | 6.43 | 6.63 |  | 
11 | CC(O)(c1ccc(N2CCN(S(=O)(=O)c3cccs3)C[C@@H]2CS(=O)(=O)c2ccc(F)cc2)cc1)C(F)(F)F (mixture of isomers) [Example 191 Peak#1, 1,1,1-trifluoro-2-(4-((2R)-2-(((4-fluorophenyl)sulfonyl)methyl)-4-(2-thiophenylsulfonyl)-1-piperazinyl)phenyl)-2-propanol] | 6.75 | 6.78 |  | 
12 | CC(O)(c1ccc(N2CCN(S(=O)(=O)c3cccs3)C[C@@H]2CNS(=O)(=O)c2cccnc2)cc1)C(F)(F)F (mixture of isomers) [Example 192, N-(((2S)-4-(2-thiophenylsulfonyl)-1-(4-(2,2,2-trifluoro-1-hydroxy-1-methylethyl)phenyl)-2-piperazinyl)methyl)-3-pyridinesulfonamide] | 6.99 | 6.90 |  | 
13 | CC(C)N(C[C@H]1CN(S(=O)(=O)c2cccs2)CCN1c1ccc(C(C)(O)C(F)(F)F)cc1)S(C)(=O)=O (mixture of isomers) [Example 195, N-(1-methylethyl)-N-(((2R)-4-(2-thiophenylsulfonyl)-1-(4-(2,2,2-trifluoro-1-hydroxy-1-methylethyl)phenyl)-2-piperazinyl)methyl)methanesulfonamide] | 7.55 | 7.24 |  | 
14 | CC(C)CN(C[C@H]1CN(S(=O)(=O)c2cccs2)CCN1c1ccc(C(C)(O)C(F)(F)F)cc1)S(C)(=O)=O (mixture of isomers) [Example 201, N-(2-methylpropyl)-N-(((2S)-4-(2-thiophenylsulfonyl)-1-(4-(2,2,2-trifluoro-1-hydroxy-1-methylethyl)phenyl)-2-piperazinyl)methyl)methanesulfonamide] | 8.40 | 7.85 |  | 
15 | CC(O)(c1ccc(N2CCN(S(=O)(=O)c3cccs3)C[C@@H]2CN(CC2CC2)S(C)(=O)=O)cc1)C(F)(F)F (mixture of isomers) [Example 202, N-(cyclopropylmethyl)-N-(((2S)-4-(2-thiophenylsulfonyl)-1-(4-(2,2,2-trifluoro-1-hydroxy-1-methylethyl)phenyl)-2-piperazinyl)methyl)methanesulfonamide] | 7.59 | 7.41 |  | 
16 | CC(O)(c1ccc(N2CCN(S(=O)(=O)c3cccs3)CC2CN2C3COCC2C(O)C3)cc1)C(F)(F)F (single isomer, unassigned) [Example 77 Peak #2] | 7.96 | 7.72 |  | 
17 | CC(O)(c1ccc(N2CCN(S(=O)(=O)c3cccs3)CC2CN2C3COCC2C(O)C3)cc1)C(F)(F)F (single isomer, unassigned) [Example 77 Peak #3] | 7.54 | 7.24 |  | 
18 | CC(O)(c1ccc(N2CCN(S(=O)(=O)c3cccs3)C[C@@H]2CN2C3COCC2C(O)C3)cc1)C(F)(F)F (single isomer, unassigned) [Example 78 Peak #1] | 7.36 | 6.84 |  | 
19 | CC(O)(c1ccc(N2CCN(S(=O)(=O)c3cccs3)C[C@@H]2CN2C3COCC2C(O)C3)cc1)C(F)(F)F (single isomer, unassigned) [Example 78 Peak #2] | 7.31 | 7.22 |  | 
20 | CC(O)(c1ccc(N2CCN(S(=O)(=O)c3cccs3)C[C@@H]2CN2C3COCC2C(O)C3)cc1)C(F)(F)F (single isomer, unassigned) [Example 78 Peak #3] | 7.48 | 7.44 |  | 
21 | CC(O)(c1ccc(N2CCN(S(=O)(=O)c3cccs3)C[C@@H]2CN2C3COCC2C(O)C3)cc1)C(F)(F)F (single isomer, unassigned) [Example 78 Peak #4] | 7.40 | 7.34 |  | 
